Measurements as given in patent US6569846B1, “Palladium-substituted bacteriochlorophyll derivatives and use thereof” (Yeda Research and Development Co. Ltd., priority 1998, dated 2003).

How the values were obtained:
[1] = tested on: HT29 human colon adenocarcinoma; experiment: In vivo phototoxicity on grafted HT29 tumors (tumoral index); parameters: species or system Swiss nude mice; conditions: for tumor growth as compared to controls / duration of decrease of tumor index: 15 mg/kg i.v., 763 nm
Experimental: Animal and tumor model: Solid tumor tissue (diameter 2 cm) removed from donor mouse immediately after death was mechanically crushed in 1 ml of 0.9% saline solution and the solution (0.1 ml) was injected s.c. into one hind leg of each mouse. Mice were included for experiments when the tumor diameter was 8-10 mm. Tumors were grafted s.c. in 8-week aged Swiss nude mice 10 days before experiment.
Phototoxic studies: 0.15 ml Pd-BPheid was injected i.v. at 15 mg/kg. Mice were anesthetized with thiopental at 40 mg/kg just before irradiation. At 30 min, 1 h, 4 h or 24 h after injection, mice were irradiated with a titanium sapphire laser at 300 mW/cm^2, mean diameter were measured to adjust time irradiation to obtain 200 or 300 J/cm^2. Control mice not injected with Pd-BPheid were also irradiated in same conditions. The tumor growth delay induced by PDT was analyzed by equivalence with tests realized in experimental radiotherapy. For in vivo studies and for each separate experiment, all results were the mean of 2 or 3 separate experiments and for each separate experiment, 2 mice were used for each experimental condition.
Concerning tumoral growth studies, results are expressed as tumoral index variations with reference (=1) corresponding to tumoral index from non-treated cells. The tumoral index was calculated as follows:
Tumoral index=(largest tumoral diameter+perpendicularly opposite diameter)/2.

[2] = tested on: mouse leukemia L1210 cells; experiment: Sites of photodamage (fluorescent probes); assay type: cell-based
Experimental: (§1) (ii) In vitro phototoxicity. For studies on phototoxicity involving L1210 and RIF cells, light was provided by a 600 watt quartz-halogen source filtered with 10 cm of water and a 850 nm cut-off filter to remove IR. The bandwidth was further confined to 660±5 nm by an interference filter (Oriel). Cells in suspension (L1210) or adhering to 24 mm diameter cover slips were incubated in growth medium (with 20 mM HEPES pH 7 replacing NaHCO3 for added buffering capacity) for 15 min in the presence of specified levels of sensitizers. The cells were then washed free from the sensitizer, and transferred to fresh media. Irradiations were carried out at 10° C. For some studies, the cells were then labeled with fluorescent probes and sites of photodamage were assessed. In other studies, the cells were then incubated for 60 min at 37° C. in fresh medium to allow apoptosis to proceed. Viability studies were carried out using 96-well plates and a 72-hour MTT assay, in quadruplicate.

C6 glioma tumors = experiment: In vivo PDT of C6 glioma tumors and metastasis formation; parameters: species or system CD1 nude mice; conditions: 5 mg/Kg i.v.; for tumor flattening (disappearance): 200 mw/cm^2 for 30 minutes
Experimental: (i) Materials: Pd-BPheid (prepared as in Example 1) or Pd-BPpheid-SerOMe 5 mg/kg in 20% Cremophor EL.
(ii) Light source: The light source was a Xenon fluorine LS3-PDT lamp (Bio-Spec, Russia), with 10 cm water filter and 720-850 nm light band.
(iv) Tumors: Mice were implanted with 10^6 C6 glioma cells in the foot of the hind leg. Tumors were treated when reached a length of 7-8 mm.
(vii) Protocol: Three groups (10 mice in each) were i.v. injected with 5 mg/Kg of sensitizer (Pd-BPheid or Pd-BPpheid-SerOMe) and immediately illuminated at 200 mw/cm^2, for 30 minutes, and the animals were allowed to recover in the cage. Groups 1 and 2: Animals which received PDT Pd-Bpheid and Pd-BPpheid-SerOMe, respectively. Tumor response and metastasis formation in groin were followed for 4 weeks. Group 3: Animals which were amputated at the ankle joint (paired with group 1) and metastasis formation in groin was followed for 4 weeks. The parameters of response to PDT were the percent of animals with tumor necrosis and disappearance, out of the total number of treated animals. Metatstasis was manifested by appearance of tumors in the groin or elsewhere. The endpoints considered were: follow up for 4 weeks, spontaneous death, tumors reached a diameter of 2 cm, metastasis, whichever came first.

[3] = tested on: L1210 murine leukemia cells; experiment: In vitro phototoxicity on L1210 cells (MTT); assay type: cell-based; conditions: 1 μM, 30 min at 37° C.
Experimental: (§2) (i) Cell lines. The murine leukemia cell line (L1210) was maintained in suspension culture using Fischer's medium supplemented with 10% horse serum, 1 mM glutamine, 1 mM mercaptoethanol and gentamicin. The RIF (Radiation induced Fibrosarcoma) tumor was maintained as specified by Twentyman et al. (1980, “A new mouse tumor model system (RIF-1) for comparison of end-point studies”, J. Natl. Cancer Inst., 64, 595-604). Cultures were grown in Weymouth's medium containing 10% fetal calf serum and gentamycin.
as §1, with “[…] […]” for “The bandwidth was further confined to 660±5 nm by an interference filter (Oriel). Cells in suspension (L1210) or adhering to 24 mm diameter cover slips were incubated in growth medium (with 20 mM HEPES pH 7 replacing NaHCO3 for added buffering capacity) for 15 min in the presence of specified levels of sensitizers.”
(§3) (iii) Cell Viability. Cell survival was assessed by the MTT reaction carried out 3 days after plating of 1,000-50,000 cells in 96 well plates. […] Absorbance at x nm was determined with a BioRad Plate reader. […]

[4] = tested on: RIF (Radiation induced Fibrosarcoma) line; experiment: In vitro phototoxicity on RIF cells (MTT); assay type: cell-based, mouse
Experimental: as §2
as §1, with “The cells were then washed free from the sensitizer, and transferred to fresh media. Irradiations were carried out at 10° C.” left out, “In other studies, the cells were then incubated for 60 min at 37° C. in fresh medium to allow apoptosis to proceed. Viability studies were carried out using 96-well plates and a 72-hour MTT assay, in quadruplicate.” left out
as §3

CC[C@H]1C2=NC(=Cc3c(C(C)=O)c(C)c4[n]3[Pd][n]3c(c(C)c5c3=C(C3=NC(=C4)[C@@H](C)[C@@H]3CCC(=O)O)[C@@H](C(=O)OC)C5=O)=C2)[C@@H]1C [Pd-BPheid, Pd-bacteriopheophorbide a]
tumor growth as compared to controls ([1]; 200 J/cm^2, 30 min and 4 h after injection): tumor growth decrease | duration of decrease of tumor index ([1]; 200 J/cm^2, 1 h and 24 h after injection): up to 7 days | tumor growth as compared to controls ([1]; 300 J/cm^2, 30 min and 24 h after injection): tumor growth decrease | duration of decrease of tumor index ([1]; 300 J/cm^2, 1 h and 4 h after injection): up to 7 days | wavelength of maximum tumor growth decrease ([1]; 300 J/cm^2, 1 h after injection): 763 nm | duration of tumor growth decrease as compared to controls ([1]; 300 J/cm^2, 1 h after injection, 753 nm and 763 nm): up to 12 days | duration of tumor growth decrease as compared to controls ([1]; 300 J/cm^2, 1 h after injection, 773 nm): up to 5 days | wavelength of maximum tumor growth decrease ([1]; 300 J/cm^2, 24 h after injection): 773 nm | duration of tumor growth decrease as compared to controls ([1]; 300 J/cm^2, 24 h after injection, 753 nm): up to 4 days | duration of tumor growth decrease as compared to controls ([1]; 300 J/cm^2, 24 h after injection, 763 nm and 773 nm): up to 12 days | most efficient delay between injection and illumination ([1]; 773 nm wavelength): 24 h | most efficient delay between injection and illumination ([1]; at 764 nm): one hour | optimal wavelength of irradiation ([1]; summary of the study): 773 nm | photodamage to the plasma membrane or to lysosomes [2]: no detectable photodamage | site of photodamage [2]: highly specific mitochondrial photosensitizers | effect of PDT on C6 glioma tumors (C6 glioma tumors): curative | tumor flattening (disappearance) (C6 glioma tumors; day 11): 100% | tumor flattening (disappearance) (C6 glioma tumors; day 28): about 60% | frequency of metastasis after PDT (C6 glioma tumors; follow up for 4 weeks): up to 23% | cell killing ([3]; 75 mJ/cm^2 light at 760±5 nm): 50% | dose of light resulting in 50% cell killing ([3]; light at 760±5 nm): 75 mJ/cm^2 | light dose required for a similar degree (50%) of cell killing [4]: 215 mJ/cm^2
